Source: patent US20120028918A1, “PHARMACEUTICAL COMPOSITIONS AND METHODS OF MAKING SAME” (GLAXO WELLCOME MANUFACTURING PTE LTD., priority 2010, published 2012)

Key:
Akt2 = molecular target: T1, Akt2 (Homo sapiens, UniProt P31751); assay: Akt kinase assay (HTRF, GSK-derived biotinylated peptide substrate); assay type: biochemical; details: activated Akt2, HTRF, 120 minute preincubation; read-out: IC50 against Akt2
T1 construct: a middle T tag was added to the 5′ end of the full length Akt2 using the PCR primer; middle T tag (EYMPME) (N); biotin tag (from pS2neo vector); made in house; host or cells: Drosophila S2 cells
T1 sequence (P31751 whole entry): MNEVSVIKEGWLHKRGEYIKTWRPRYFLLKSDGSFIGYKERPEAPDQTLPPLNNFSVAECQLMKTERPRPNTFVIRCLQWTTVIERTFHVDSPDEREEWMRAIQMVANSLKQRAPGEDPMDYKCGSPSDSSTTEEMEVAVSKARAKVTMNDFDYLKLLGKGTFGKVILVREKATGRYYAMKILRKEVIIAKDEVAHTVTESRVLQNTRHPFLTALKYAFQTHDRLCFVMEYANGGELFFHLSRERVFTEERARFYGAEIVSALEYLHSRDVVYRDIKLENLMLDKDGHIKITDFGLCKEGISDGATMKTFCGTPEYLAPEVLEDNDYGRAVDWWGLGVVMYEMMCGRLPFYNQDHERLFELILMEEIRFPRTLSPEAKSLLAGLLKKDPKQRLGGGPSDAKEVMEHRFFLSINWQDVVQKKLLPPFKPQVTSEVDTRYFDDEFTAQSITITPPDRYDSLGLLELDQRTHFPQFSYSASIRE
Method: (§1) Activated Akt isoforms were assayed utilizing a GSK-derived biotinylated peptide substrate. The extent of peptide phosphorylation was determined by Homogeneous Time Resolved Fluorescence (HTRF) using a europium-coupled monoclonal antibody specific for the phosphopeptide in combination with a streptavidin-linked allophycocyanin (SA-APC) fluorophore which will bind to the biotin moiety on the peptide. When the europium and APC are in proximity (i.e. bound to the same phosphopeptide molecule), a non-radiative energy transfer takes place from the […] to the APC, followed by emission of light from APC at 665 nm.
(§2) Materials required for the assay: • A. 100 nM activated Akt1 or 225 nM activated Akt2 • B. 10×R for AKT assay buffer (500 mM Hepes pH 7.5, 1% PEG m.w. 15000-20000, 1 mM EDTA, 1 mM EGTA, 1% BSA, 20 mM β glycerol phosphate) • C. 1 M KCl • D. 50% glycerol • E. 250 mM MgCl2 • F. 50 mM ATP pH 7.0 • G. 0.2 M DTT • H. 1 mM GSK3α biotinylated peptide (SynPep biotin-[…]-COOH) • I. Stop Buffer: 40 mM EDTA (pH8.4) • J. 8.5 uM SA-APC (PerkinElmer #CR130-100, lot No. N01001K-AAG16) • K. 4.9 uM Eu-W 1024 labeled phos-GSK3 monoclonal antibody (PerkinElmer #CUSM63178) • L. Detection Reagent: 15 mM Tris-HCl ([…]), 0.1% Tween20, 250 nM SA-APC (PerkinElmer #CR130-100, lot No. N01001K-AAG16), 0.735 nM Eu-W1024 labeled phos-GSK3 monoclonal antibody (PerkinElmer #CUSM63178) The reaction was assembled using the following protocol: • A. Add 0.5 uL inhibitor to test wells or 0.5 uL DMSO to no drug control wells. • B. Prepare Enzyme diluent: 18000 uL 10×R for AKT assay buffer, 9600 uL 250 mM MgCl2, 12000 uL 1 M KCl, 18000 uL 50% Glycerol, 900 uL 0.2 M DTT, 121500 uL MilliQ water. • C. Prepare Enzyme mixture (E-Mix): To […] Enzyme diluent, added 4.3 uL of a 100 nM activated AKT1, 1.9 uL of a 225 nM stock of activated Akt2 so concentration AKT1 and Akt2 were 6 pM. • D. 10 uL of Stop Buffer was added manually to wells acting as Background control wells. Initiate preincubation reactions by adding 15 uL of E-Mix using Multidrop 384. Spin down assay plates after the addition of E-Mix. • E. Prepare ATP/Peptide working solution (S-Mix): 10000 uL 10×R for AKT assay buffer, 5000 uL 50% glycerol, 250 uL 0.2M DTT, 600 uL 50 mM ATP, 100 uL 1 mM GSK3 peptide, 34050 uL MilliQ water. • F. To wells where preincubation is being conducted, after the 120 minute preincubation, initiate kinase reactions by adding 5 uL S-Mix using FRD. […] Let kinase assays run for 60 minutes at 25° C. • G. Stop kinase reactions by adding 10 uL Stop Buffer, using Multidrop 384, to wells other than background wells. • H. 10 uL of Detection Reagent was added using FRD and stopped assays were stored at room temperature for more than 2 hours. • I. The plates were read on PHERAstar.

Akt1 = molecular target: T2, Akt1 (Homo sapiens, UniProt P31749); assay: as above; assay type: biochemical; details: activated Akt1, HTRF, 120 minute preincubation; read-out: IC50 against Akt1
T2 construct: a middle T tag was added to the 5′ end of the full length Akt1 gene; middle T tag (EYMPME) (N); biotin tag (from pS2neo vector); made in house; host or cells: Drosophila S2 cells
T2 sequence (P31749 whole entry): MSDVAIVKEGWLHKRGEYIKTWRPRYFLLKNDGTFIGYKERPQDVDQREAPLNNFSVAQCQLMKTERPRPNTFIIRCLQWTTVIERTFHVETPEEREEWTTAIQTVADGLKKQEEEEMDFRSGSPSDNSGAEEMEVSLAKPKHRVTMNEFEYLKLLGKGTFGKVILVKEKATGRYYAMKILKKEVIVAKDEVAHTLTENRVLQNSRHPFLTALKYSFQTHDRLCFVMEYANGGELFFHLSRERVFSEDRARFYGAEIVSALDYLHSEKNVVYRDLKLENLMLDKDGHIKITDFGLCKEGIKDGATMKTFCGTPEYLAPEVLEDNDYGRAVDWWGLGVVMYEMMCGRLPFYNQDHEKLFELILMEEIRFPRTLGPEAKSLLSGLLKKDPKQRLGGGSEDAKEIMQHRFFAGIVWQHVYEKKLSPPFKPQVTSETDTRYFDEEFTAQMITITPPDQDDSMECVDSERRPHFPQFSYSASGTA
Method: as §1, §2

IC50 (Akt2) [nM]	IC50 (Akt1) [nM]	SMILES
26	91	COc1ccc(-c2nc(-c3ccc([C@]4(N)C[C@](C)(O)C4)cc3)c(-c3ccccc3)s2)cn1 [Compound 2-1, (1R,3R)-3-amino-3-(4-(2-(6-methoxypyridin-3-yl)-5-phenylthiazol-4-yl)phenyl)-1-methylcyclobutanol]
25	40	COc1cncc(-c2nc(-c3ccc([C@]4(N)C[C@](C)(O)C4)cc3)c(-c3ccccc3)s2)c1 [Compound 3-1, (1R,3R)-3-amino-3-(4-(2-(5-methoxypyridin-3-yl)-5-phenylthiazol-4-yl)phenyl)-1-methylcyclobutanol]
